Measured values as given in article PMC6272238, “Synthesis and Pharmacophore Modelling of 2,6,9-Trisubstituted Purine Derivatives and Their Potential Role as Apoptosis-Inducing Agents in Cancer Cell Lines” (Molecules, 2015).

Legend:
H1975 (lung) cells = experiment: MTT cytotoxicity assay on H1975 cells; assay type: cell-based, human; details: for IC50: MTT, 72 h continuous exposure, triplicate, range 0.05 to 50 µM; for Selectivity Index (SI) (Vero/H1975): ratio IC50 (Vero)/IC50 (H1975)
Method: (§1) The potential in vitro antitumor activity of compounds 4a–l was initially tested for their cytotoxic effects on H1975, HL-60, HCT116 and HeLa cancer cell lines and Vero cells. […]
(§2) Cancer cell lines were grown at 37 °C in humidified atmosphere and 5% CO2. H1975, HL60, HTC116 and Vero cells were grown in RPMI 1640 culture medium supplemented with 10% fetal bovine serum and (100 UI/mL) penicillin-streptomicyn. HeLa cells were grown in EMEM culture medium, supplemented with 10% fetal bovine serum and (100 UI/mL) penicillin-streptomicyn.
(§3) Cytotoxicity assays were performed by using the MTT reduction method as described previously. Briefly, cancer cell lines were plated in a flat-bottom 96-wells plate at 10,000 cells per well density. […] Ten µL of MTT was added at a final concentration of 0.5 mg/mL, incubated at 37 °C for 4 h, and then solubilized with 10% sodium dodecyl sulfate (SDS) in 0.1 mM HCl and incubated overnight at 37 °C. Formazan formation was measured at 570 nm in a multiwell reader (StatFax 4200, Awareness Technology, Inc. Palm City, FL, USA).
(§4) Values are expressed as means ± standard deviations from three independent experiments. IC50 values, (Compound concentration necessary to decrease at 50% the MTT reduction) and the two-way analysis of variance (ANOVA) test were performed when necessary with Prism GraphPad 6.0f software (GraphPad Software Inc., San Diego, CA, USA).

HL-60 (leukemia) cells = experiment: MTT cytotoxicity assay on HL-60 cells; assay type: cell-based, human; details: 72 h continuous exposure, triplicate, range 0.05 to 50 µM
Method: as §1, §2, §3, §4

[1] = tested on: HCT116 (colorectal) cells; experiment: MTT cytotoxicity assay on HCT116 cells; assay type: cell-based, human; details: for IC50: MTT, 72 h continuous exposure, triplicate, range 0.05 to 50 µM; for Selectivity Index (SI) (Vero/HCT116): ratio IC50 (Vero)/IC50 (HCT116)
Method: as §1, §2, §3, §4

Vero cells = experiment: MTT cytotoxicity assay on Vero cells; assay type: cell-based; details: Chlorocebus sabaeus, 72 h continuous exposure, triplicate, range 0.05 to 50 µM
HeLa cells [2] = experiment: MTT cytotoxicity assay on HeLa cells; assay type: cell-based, human; details: for IC50: MTT, 72 h continuous exposure, triplicate, range 0.05 to 50 µM; for Selectivity Index (SI) (Vero/HeLa): ratio IC50 (Vero)/IC50 (HeLa)
Method: as §1, §2, §3, §4

HeLa cells [3] = experiment: Apoptosis/viability assay by FACS with propidium iodide, HeLa; assay type: cell-based, human; details: 50 µM, 16 h, PI staining
Method: (§5) To evaluate sensitivity to 4f, 4j and 4k, Vero, HTC116, H1975 and Hela were treated with concentrations of 50 µM for 16 h. Fifty µM etoposide was used as positive control. As it can be seen in Figure 5, 4f, 4j and 4k induced apoptosis as a prevalent type of cell death, in high percentages (>70%), in every cancer cell line. Moreover, 4f, 4j, and 4k induced an apoptotic cell response greater than etoposide.
(§6) Cell viability was analyzed by FACS as previously described. In this assay, after setting the baseline to exclude cell debris, cells impermeable to propidium iodide (PI negative) are considered as viable. Two populations of PI-permeable dead cells are distinguished based on fluorescence intensity, corresponding to either hypodiploid apoptotic cells or necrotic cells with intact DNA. Here, H1975, HTC116, and HeLa cells were incubated with concentrations of 50 µM of each compound for 16 h at 37 °C. Cells were harvested and stained with 10 µg/mL of propidium iodide to determine cell viability. Samples containing roughly 1 × 10^4 cells were evaluated by flow cytometry (FACScanto II; Becton Dickinson, Mountain View, CA, USA) and analyzed using the software program FCS Express v5.

HTC116 cells = experiment: Apoptosis/viability assay by FACS with propidium iodide, HTC116; assay type: cell-based, human; details: HTC116, 50 µM, 16 h, PI staining
Method: as §5, §6

H1975 cells = experiment: Apoptosis/viability assay by FACS with propidium iodide, H1975; assay type: cell-based, human; details: H1975, 50 µM, 16 h, PI staining
Method: as §5, §6

Row | melting point | Structure (SMILES) | IC50 (H1975 (lung) cells; Homo sapiens, NCI-H1975, 72 h) | Selectivity Index (SI) (Vero/H1975) (H1975 (lung) cells) | IC50 (HL-60 (leukemia) cells; Homo sapiens, HL-60, 72 h) | IC50 ([1]; Homo sapiens, HCT-116, 72 h) | Selectivity Index (SI) (Vero/HCT116) [1] | IC50 (Vero cells) | IC50 (HeLa cells [2]; Homo sapiens, HeLa, 72 h) | Selectivity Index (SI) (Vero/HeLa) (HeLa cells [2]) | IC50 (H1975 (lung) cells) | IC50 (HL-60 (leukemia) cells) | IC50 [1] | IC50 (HeLa cells [2]) | apoptosis (percentage of cells) (HeLa cells [3]) | apoptosis (percentage of cells) (HTC116 cells) | apoptosis (percentage of cells) (H1975 cells)
1 |  | CC(C)n1cnc2c(NCc3ccccc3)nc(NCc3ccccc3)nc21 [Compound 4a, N^2,N^6-Dibenzyl-9-isopropyl-9H-purine-2,6-diamine] | 14 ± 0.26 µM | 1.43 | 26 ± 0.13 µM | 13 ± 0.12 µM | 1.54 | 20 ± 0.11 µM | 32 ± 0.13 µM | 0.63 |  |  |  |  |  |  | 
2 | 113 to 115 °C | CCCCn1cnc2c(NCc3ccccc3)nc(NCc3ccccc3)nc21 [Compound 4b, N^2,N^6-Dibenzyl-9-butyl-9H-purine-2,6-diamine] | 28 ± 0.08 µM | 0.20 | > 50 µM | 7.2 ± 0.16 µM | 0.78 | 5.6 ± 0.15 µM | 18 ± 0.14 µM | 0.31 |  |  |  |  |  |  | 
3 | 111 to 113 °C | CC(C)Cn1cnc2c(NCc3ccccc3)nc(NCc3ccccc3)nc21 [Compound 4c, N^2,N^6-Dibenzyl-9-isobutyl-9H-purine-2,6-diamine] | > 36 µM | 0.61 | > 36 µM | > 36 µM |  | 22 ± 0.23 µM | > 36 µM |  | 36 ± 0.27 µM | > 50 µM | > 50 µM | > 50 µM |  |  | 
4 | 83 to 86 °C | CCCCCn1cnc2c(NCc3ccccc3)nc(NCc3ccccc3)nc21 [Compound 4d, N^2,N^6-Dibenzyl-9-pentyl-9H-purine-2,6-diamine] | 12 ± 0.19 µM | 0.21 | > 50 µM | 11 ± 0.11 µM | 0.23 | 2.5 ± 0.2 µM | 10.1 ± 0.14 µM | 0.25 |  |  |  |  |  |  | 
5 | 69 to 70 °C | CC(C)CCn1cnc2c(NCc3ccccc3)nc(NCc3ccccc3)nc21 [Compound 4e, N^2,N^6-Dibenzyl-9-isopentyl-9H-purine-2,6-diamine] | 8.6 ± 0.18 µM | 0.29 | > 50 µM | 5.1 ± 0.14 µM | 0.49 | 2.5 ± 0.14 µM | 2.7 ± 0.13 µM | 0.93 |  |  |  |  |  |  | 
6 |  | CCCCCCn1cnc2c(NCc3ccccc3)nc(NCc3ccccc3)nc21 [Compound 4f, N^2,N^6-Dibenzyl-9-hexyl-9H-purine-2,6-diamine] | 9.9 ± 0.18 µM | 2.63 | > 50 µM | 3 ± 0.12 µM | 8.67 | 26 ± 0.12 µM | 5.3 ± 0.13 µM | 4.91 |  |  |  |  | > 70% | > 70% | > 70%
7 | 69 to 70 °C | COc1ccc(CNc2nc(NCc3ccccc3)nc3c2ncn3C(C)C)cc1 [Compound 4g, N^2-Benzyl-9-isopropyl-N^6-(4-methoxybenzyl)-9H-purine-2,6-diamine] | > 50 µM |  | 22 ± 0.13 µM | 7.1 ± 0.11 µM | 2.11 | 15 ± 0.23 µM | 10.7 ± 0.18 µM | 1.40 |  |  |  |  |  |  | 
8 |  | CCCCn1cnc2c(NCc3ccc(OC)cc3)nc(NCc3ccccc3)nc21 [Compound 4h, N^2-Benzyl-9-butyl-N^6-(4-methoxybenzyl)-9H-purine-2,6-diamine] | 11 ± 0.25 µM |  | > 50 µM | 7 ± 0.16 µM |  | 17 ± 0.2 µM | 6.3 ± 0.17 µM |  |  |  |  |  |  |  | 
9 | 110 to 112 °C | COc1ccc(CNc2nc(NCc3ccccc3)nc3c2ncn3CC(C)C)cc1 [Compound 4i, N^2-Benzyl-9-isobutyl-N^6-(4-methoxybenzyl)-9H-purine-2,6-diamine] | 3.4 ± 0.28 µM | 0.56 | > 50 µM | 1.6 ± 0.12 µM | 1.19 | 1.9 ± 0.24 µM | 4.9 ± 0.16 µM | 0.39 |  |  |  |  |  |  | 
10 |  | CCCCCn1cnc2c(NCc3ccc(OC)cc3)nc(NCc3ccccc3)nc21 [Compound 4j, N^2-Benzyl-N^6-(4-methoxybenzyl)-9-pentyl-9H-purine-2,6-diamine] | 2.3 ± 0.13 µM | 11.30 | > 50 µM | 8 ± 0.21 µM | 3.25 | 26 ± 0.18 µM | 9.5 ± 0.14 µM | 2.74 |  |  |  |  | > 70% | > 70% | > 70%
11 |  | COc1ccc(CNc2nc(NCc3ccccc3)nc3c2ncn3CCC(C)C)cc1 [Compound 4k, N^2-Benzyl-9-isopentyl-N^6-(4-methoxybenzyl)-9H-purine-2,6-diamine] | 5.6 ± 0.23 µM | 6.07 | > 50 µM | 11 ± 0.26 µM | 3.09 | 34 ± 0.13 µM | 5.4 ± 0.32 µM | 6.30 |  |  |  |  | > 70% | > 70% | > 70%
12 |  | CCCCCCn1cnc2c(NCc3ccc(OC)cc3)nc(NCc3ccccc3)nc21 [Compound 4l, N^2-Benzyl-9-hexyl-N^6-(4-methoxybenzyl)-9H-purine-2,6-diamine] | > 50 µM |  | > 50 µM | 6.8 ± 0.14 µM |  | 15 ± 0.06 µM | 9 ± 0.13 µM |  |  |  |  |  |  |  | 
13 |  | COc1cc([C@@H]2c3cc4c(cc3[C@@H](O[C@@H]3O[C@@H]5CO[C@@H](C)O[C@H]5[C@H](O)[C@H]3O)[C@H]3COC(=O)[C@H]23)OCO4)cc(OC)c1O [Etoposide, reference compound] | 8 ± 0.33 µM |  | 6.2 ± 0.18 µM | 2.8 ± 0.24 µM |  | > 25 µM | 8.2 ± 0.33 µM |  |  |  |  |  |  |  | 
